Experimental data from patent US8871900B2, “Fibroblast growth factor (FGF) analogs and uses thereof” (University of Rochester, priority 2008, dated 2014).
Entries after “also recorded” stand apart in the source; their conditions may differ. Peptide text beside a SMILES is read from it.

Tests used:
[1] = tested on: epithelial cells (SW480, a cell line from colon); experiment: Growth bioassay, epithelial cells; assay type: cell-based; details: FGF-P added to culture media
Experimental: These clusters can be counted thus allowing for measurement of relative binding coefficients. To test the feasibility of binding coefficient measurement, competition experiments were performed. Free FGF-P (30 ug/ml) was added to cells for 20 min and then the biotin-FGF-P (1 μg/mL) was added. One hour later, the streptavidin-FITC was added and analyzed by flow cytometry. […] In a third test, a bioassay was performed. FGF-P was added to culture media of two types of cells: endothelial cells (adult bovine aorta endothelium) and epithelial cells (SW480, a cell line from colon).
Three preliminary experiments were carried out using FGF-P in vitro to confirm its activity. First, the biotin conjugated FGF-P was used as a tool to examine cell surface binding. AsPC-1 pancreatic cancer epithelial cells are known to have high levels of FGFR and were used for this study. ASPC-1 cells were incubated with 1 μg/ml of biotin-FGF-P and then labeled with streptavidin-FITC. The cells were then analyzed using an imaging flow cytometer (Amnis Imagestream). This device can image each cell as it passes through the laser, and it can then sort cells according to both staining and morphological characteristics. […] These clusters were counted, allowing for measurement of relative binding coefficients. […] One hour later, streptavidin-FITC was added and analyzed by flow cytometry. […]

[2] = tested on: Balb/c mice exposed to TBI; experiment: Survival after TBI (BM syndrome / ARS); assay type: in vivo, mouse (Balb/c); details: for mice survived: Balb/c
[3] = Plasma endotoxin after sub-TBI (tachypleus amebocyte lysate kit); assay type: in vivo, mouse (Balb/c, C57BL/6); details: Balb/c, 10.5 Gy sub-TBI, 3.5 days post-IR; FGF-P treated (vehicle 3.32, normal 0.45)
Experimental: Some studies have employed bacterial culture of liver samples. Bacterial translocation occurs due to mucosal barrier changes (1) at the level of the basement membrane and (2) bowel mucous volume and composition. The most reliable and most clinically applicable method to measure bacterial translocation is the endotoxin assay. The level of plasma endotoxin 3.5 days post-IR was measured with a commercialized kit that utilized tachypleus amebocyte lysate to sensitively quantitate endotoxin at extremely low levels (<0.01 EU/ml); and 4) body weight (BW): poor nutrition and water absorption will result in reduced body weight. The rate and severity of weight loss, as well as the pace of body weight recovery, will be measured.
2) A standard scoring scale was used to evaluate stool formation (diarrhea). The bowel was extracted from the abdomen and visually inspected. Formed stool was easily distinguished from semi-solid and liquid stool as it passed from the ascending to descending colon. FIGS. 7B and 7C show the irradiated bowel in controls compared with FGF-P-treated Balb/c mice. The FGF-P was given at a dose of 2 mg/kg im for three daily doses beginning 15 min after irradiation. Animals were sacrificed 3.5 days after 10.5 Gy sub-TBI.

[4] = tested on: MCP-1, IL-6, TNFα; experiment: Plasma inflammatory molecules after sub-TBI (Luminex bead array); assay type: in vivo, mouse (Balb/c); details: Balb/c, 12 Gy sub-TBI, 3.5 days; FGF-P 2 mg/kg at 10 min post-IR and daily for two days
Experimental: Bead array technology has been developed to facilitate the study of cytokine expression profiles in normal tissues following radiation. Bead arrays have several advantages over ELISA. First, mice have a limited blood volume (0.3-0.4 ml of plasma/mouse). Each ELISA typically requires approximately 0.1 ml and thus only a limited number of assays are possible. Secondly, the time required to perform ELISAs one by one stresses the system in a large experiment and would be difficult to perform in the field in case of a radiological event. The Luminex bead array technology was used. The paired monoclonal antibodies, the highly-purified protein standards, and the more than 50 different cytokinespecific beads were purchased. In these studies, Balb/c mice received 12 Gy sub-TBI and then im injection of vehicle alone (0.2 ml of saline), FGF-P (2 mg/kg at 10 min post-IR and daily for two days), or Amifostine (200 mg/kg, either 30 min before IR, or 10 min after IR). The samples were collected 3.5 days after IR.
All three of these cytokines are associated with increased severity and progression of radiation-related inflammatory toxicity in mouse and man.

[5] = Stability of FGF-P; assay type: physicochemical
[6] = tested on: BM cells; experiment: 3H-TdR incorporation of normal and irradiated (0.5 Gy) BM cells; assay type: cell-based, mouse
Experimental: To determine if BM cells damaged by IR still responded to FGF-P, cells were plated in 96 round-bottom wells with serum-free ultraDoma-PF media and equally divided into two parts; one was not irradiated as control, and the other was irradiated with 0.5 Gy. They were then treated with equal amount of test agents within 1 hour post-IR. The following day, 0.2 uCi/well of ^3H-TdR was added and they were further cultured for 4 days before harvesting with a 96 well automatic harvester. […] There was no response to EPO.

[7] = tested on: irradiated human cells; experiment: Responsiveness of irradiated human cells; assay type: cell-based

For CC(C)C[C@H](NC(=O)[C@H](C)NC(=O)[C@@H](NC(=O)[C@H](Cc1ccc(O)cc1)NC(=O)[C@H](Cc1c[nH]c2ccccc12)NC(=O)[C@H](CO)NC(=O)[C@H](CO)NC(=O)[C@H](Cc1ccc(O)cc1)NC(=O)[C@H](CCCCN)NC(=O)[C@H](CCCNC(=N)N)NC(=O)[C@H](CO)NC(=O)[C@H](CCCNC(=N)N)NC(=O)[C@H](Cc1ccc(O)cc1)NC(=O)[C@@H](N)CS)C(C)C)C(=O)N[C@@H](CCCCN)C(=O)N[C@@H](CCCNC(=N)N)C(=O)N[C@@H](CS)C(=O)O [FGF-P, CYRSRKYSSWYVALKRC] (H-CYRSRKYSSWYVALKRC-OH; N-terminus and C-terminus assumed), the growth of epithelium [1] was “stimulated the growth of both endothelium and epithelium”, the “dose achieving best result” value ([2]; 7.1 Gy TBI, 15, 30, 60 mg/kg tested) was 60 mg/kg and the “dose dependence of mitigation effect” value ([2]; 7.1 Gy TBI, FGF-P 15, 30, 60 mg/kg) was “dose-dependent effect”. The “mitigation effect on ARS, DMF” value ([2]; Balb/c, 6.5, 7 and 7.5 Gy TBI, FGF-P 1 mg/kg IM right after TBI, daily for 5 days) was “DMF similar to that of native FGF2”, the mice survived ([2]; 6.5 Gy TBI) was 87% and the mice survived ([2]; 7.5 Gy TBI) was 66%. For the same molecule, the “mitigation effect with delayed delivery” value ([2]; FGF-P given 8 hour after 7.1 Gy IR) was “still effective”, the “plasma endotoxin level (mean)” value [3] was 2.12 EU/ml and the “plasma MCP-1, IL-6 and TNFα” value [4] was “normalized or near-normalized these factors”. The enzyme resistance ([5]; dry powder) was “enzyme-resistant as a dry powder”, the stability ([5]; severe conditions / liquid, boiling) was “stable as a liquid even with boiling; also recorded: stable under severe conditions, for example to boiling” and the “effectiveness of boiled FGF-P” value ([5]; stability test, boiled vs original form) was “as effective as the original form”. For the same molecule, the “response of irradiated BM cells” value ([6]; 0.5 Gy, treated within 1 hour post-IR, 3H-TdR) was “in the same fashion as normal BM cells”, the order of responsiveness ([6]; 3H-TdR incorporation, serum-free media) was “FGF-P (250-500 ng/ml)>native FGF2 (50 ng/ml), GM-CSF and TPO (100 ng/ml)” and the “dose dependence of stimulatory effect” value ([6]; normal and 0.5 Gy irradiated BM cells) was “dose-dependent”. For the same molecule, the “responsiveness of irradiated human cells” value [7] was “maintain their responsiveness to FGF-P”.
